19 compounds from patent US9326515B2, “Fungicidal 3-[(1,3-thiazol-4-ylmethoxyimino)(phenyl)methyl]-2-substituted-1,2,4-oxadiazol-5(2H)-one derivatives” (BAYER INTELLECTUAL PROPERTY GMBH, priority 2011, dated 2016) can be followed below.

Molecules are shown by their SMILES. Like-named read-outs stand apart in the source and are kept apart here.

Data set [1] deals with Phytophthora infestans. It is filed as in vivo. The following applies: 500 ppm, spray on tomato plants, contaminated after 24 hours, grading 5 days after contamination vs control plants.
Another data set relates to Botrytis cinerea. In words: Example C: in vivo preventive test on Botrytis cinerea (grey mould). The following applies: 500 ppm, spray on gherkin plants, contaminated after 24 hours, grading 4 to 5 days after contamination vs control plants. On the procedure:
(§1) The active ingredients tested are prepared by homogenization in a mixture of acetone/tween/DMSO and then diluted with water to obtain the desired active material concentration.
(§2) Gherkin plants (“Vert petit de Paris” variety), sown in starter cups on a 50/50 peat soil-pozzolana substrate and grown at 24° C., are treated at the Z11 cotyledon stage by spraying with the active ingredient prepared as described above. Plants, used as controls, are treated with the mixture of acetone/tween/DMSO/water not containing the active material.
After 24 hours, the plants are contaminated by spraying the cotyledons with an aqueous suspension of cryopreserved Botrytis cinerea spores (50 000 spores per ml). The spores are suspended in a nutrient solution composed of 10 g/L of PDB, 50 g/L of D-Fructose, 2 g/L of NH4NO3 and 1 g/L of KH2PO4. The contaminated gherkin plants are incubated at 17° C. and at 90% relative humidity.
Grading (% of efficacy) is carried out 4 to 5 days after the contamination, in comparison with the control plants.
(§3) Under these conditions, good (at least 70%) or total protection is observed at a dose of 500 ppm with the following compounds: […]

For data set [2] the following is noted: pH 2.7.
Data set [3] has as its system Phytophthora infestans. In kind it is in vivo. The following applies: 100 ppm of active ingredient, spray on young tomato plants, inoculated one day after treatment, evaluated 7 days after inoculation.
A further data set concerns Plasmopara viticola. The data set is described as follows: Example I: in vivo preventive test on Plasmopara viticola (grapevines). The following applies: 10 ppm of active ingredient, spray on young grapevine plants, inoculated after spray coating dried, evaluated 6 days after inoculation. The procedure:
To produce a suitable preparation of active compound, 1 part by weight of active compound is mixed with the stated amounts of solvent and emulsifier, and the concentrate is diluted with water to the desired concentration.
To test for preventive activity, young plants are sprayed with the preparation of active compound at the stated rate of application. After the spray coating has dried on, the plants are inoculated with an aqueous spore suspension of Plasmopara viticola and then remain for 1 day in an incubation cabinet at approximately 20° C. and a relative atmospheric humidity of 100%. The plant is subsequently placed for 4 days in a greenhouse at approximately 21° C. and a relative atmospheric humidity of approximately 90%. The plants are then misted and placed for 1 day in an incubation cabinet.
The test is evaluated 6 days after the inoculation. 0% means an efficacy which corresponds to that of the untreated control, while an efficacy of 100% means that no disease is observed.

The conditions of data set [4]: for chromatographic logP: pH 2.7; for LogP: table 1, compounds of formula (I), HPLC reversed phase, pH 2.7, 0.1% formic acid in water / acetonitrile gradient.
The next data set concerns Sphaerotheca fuliginea. In words: Example D: in vivo preventive test on Sphaerotheca fuliginea (powdery mildew on cucurbits). The following applies: 500 ppm, spray on gherkin plants, contaminated after 24 hours, grading 12 days after contamination vs control plants. On the procedure: as §1, §2
After 24 hours, the plants are contaminated by spraying the cotyledons with an aqueous suspension of Sphaerotheca fuliginea spores (100 000 spores per ml). The spores are collected from infected plants. The contaminated gherkin plants are incubated at about 20° C. and at 70-80% relative humidity.
(§4) Grading (% of efficacy) is carried out 12 days after the contamination, in comparison with the control plants.
as §3

The subject of the next data set is Pyrenophora teres. In words: Example E: in vivo preventive test on Pyrenophora teres (net blotch on barley). The following applies: 500 ppm, spray on barley plants, contaminated after 24 hours, grading 14 days after contamination vs control plants. The procedure: (§5) The active ingredients tested are prepared by homogenization in a mixture of acetone/tween/DMSO, and then diluted with water to obtain the desired active material concentration.
Barley plants (“Plaisant” variety), sown in starter cups on a 50/50 peat soil-pozzolana substrate and grown at 22° C., are treated at the 1-leaf stage (10 cm height) by spraying with the active ingredient prepared as described above. Plants, used as controls, are treated with the mixture of acetone/tween/DMSO/water not containing the active material.
After 24 hours, the plants are contaminated by spraying the leaves with an aqueous suspension of Pyrenophora teres spores (12 000 spores per ml). The spores are collected from a 12-day-old culture. The contaminated barley plants are incubated for 48 hours at 20° C. and at 100% relative humidity, and then for 12 days at 20° C. at 70-80% relative humidity.
Grading (% of efficacy) is carried out 14 days after the contamination, in comparison with the control plants.
as §3

The test system of another data set is Septoria tritici. The data set is described as follows: Example G: in vivo preventive test on Septoria tritici (leaf spot on wheat). The following applies: 500 ppm, spray on wheat plants, contaminated after 24 hours, grading 24 days after contamination vs control plants. On the procedure:
as §5
(§6) Wheat plants (“Scipion” variety), sown in starter cups on a 50/50 peat soil-pozzolana substrate and grown at 22° C., are treated at the 1-leaf stage (10 cm height) by spraying with the active ingredient prepared as described above. Plants, used as controls, are treated with the mixture of acetone/tween/DMSO/water not containing the active material.
After 24 hours, the plants are contaminated by spraying the leaves with an aqueous suspension of cryopreserved Septoria tritici spores (500 000 spores per ml). The contaminated wheat plants are incubated for 72 hours at 18° C. and at 100% relative humidity, and then for 21 days at 90% relative humidity.
Grading (% of efficacy) is carried out 24 days after the contamination, in comparison with the control plants.
as §3

The test system of the next data set is Puccinia recondita. In words: Example F: in vivo preventive test on Puccinia recondita (brown rust on wheat). The following applies: 500 ppm, spray on wheat plants, contaminated after 24 hours, grading 12 days after contamination vs control plants. The procedure:
as §5, §6
After 24 hours, the plants are contaminated by spraying the leaves with an aqueous suspension of Puccinia recondita spores (100 000 spores per ml). The spores are collected from an infected plant and are suspended in water containing 2.5 ml/l of Tween 80 at 10%. The contaminated wheat plants are incubated for 24 hours at 20° C. and at 100% relative humidity, and then for 10 days at 20° C. and at 70-80% relative humidity.
as §4, §3

For orientation: LogP means the decadic logarithm of the partition coefficient of the neutral form, usually between octanol and water. As to `C#CCCC(C)OC(=O)Nc1nc(CO/N=C(/c2ccccc2)c2nc(=O)on2C)cs1` (racemic) [Example 32], the “% efficacy” value in the data set with Phytophthora infestans [1] was 99%; with Botrytis cinerea, 79%. The LogP in data set [2] came out at 3.00.
One may read the chromatographic logP as lipophilicity estimated from chromatographic retention. Low readings indicate lower lipophilicity, high ones higher lipophilicity. Regarding `Cn1oc(=O)nc1/C(=N\OCc1csc(NC(=O)C2COc3ccccc3O2)n1)c1ccccc1` (stereo not shown) [Example 9, N-{4-[({[(Z)-(2-methyl-5-oxo-2,5-dihydro-1,2,4-oxadiazol-3-yl)(phenyl)methylene]amino}oxy)methyl]-1,3-thiazol-2-yl}-2,3-dihydro-1,4-benzodioxine-2-carboxamide], the results for the Eff. % in the data set with Phytophthora infestans [3] and in the data set with Plasmopara viticola were 98% and 97%, respectively. Moreover, the chromatographic logP in data set [4] turned out to be 3.11.
For `CC(OCc1ccccc1)C(=O)Nc1nc(CON=C(c2ccccc2)c2nc(=O)on2C)cs1` (stereo not shown) [Example 19], the “% efficacy” value in the data set on Phytophthora infestans [1] is 100%. Also, in the data set with Plasmopara viticola, the Eff. % is recorded as 91%. For the same compound, in data set [4], the LogP is 3.29.
Take `Cn1oc(=O)nc1C(=NOCc1csc(NC(=O)OCCOc2ccccc2)n1)c1ccccc1` [Example 21]: the “% efficacy” value worked out at 98% with Phytophthora infestans [1], 75% in the data set on Sphaerotheca fuliginea, 80% in the data set on Pyrenophora teres and 75% with Septoria tritici. In the data set with Phytophthora infestans [3], this compound gave an Eff. % of 92%. In data set [2], this compound displayed a LogP of 3.19.
In the case of `Cn1oc(=O)nc1/C(=N\OCc1csc(NC(=O)C2CCc3ccccc3O2)n1)c1ccccc1` (stereo not shown) [Example 22, N-{4-[({[(Z)-(2-methyl-5-oxo-2,5-dihydro-1,2,4-oxadiazol-3-yl)(phenyl)methylene]amino}oxy)methyl]-1,3-thiazol-2-yl}chromane-2-carboxamide], the figures for the Eff. % in the data set with Phytophthora infestans [3] and in the data set with Plasmopara viticola were 100% and 96%, respectively. The chromatographic logP in data set [4] came out at 3.35.
As for `Cn1oc(=O)nc1C(=NOCc1csc(NC(=O)COC2CCCCC2)n1)c1ccccc1` [Example 23], the “% efficacy” value in the data set on Phytophthora infestans [1] is on record as 100%. The Eff. % in the data set with Phytophthora infestans [3] is reported as 100%. Further, the LogP in data set [4] was found to be 3.42.
Take `Cn1oc(=O)nc1C(=NOCc1csc(NC(=O)C2Cc3ccccc3O2)n1)c1ccccc1` (stereo not shown) [Example 24]: the “% efficacy” value in the data set on Phytophthora infestans [1] was found to be 100%. Besides, the Eff. % with Phytophthora infestans [3] is on record as 84%; with Plasmopara viticola, 93%. The compound also showed a LogP in data set [2] of 3.06.
Regarding `CC(COc1ccccc1)OC(=O)Nc1nc(CON=C(c2ccccc2)c2nc(=O)on2C)cs1` (stereo not shown) [Example 28], the results for the “% efficacy” value with Phytophthora infestans [1], with Pyrenophora teres and in the data set with Septoria tritici were 97%, 85% and 75%, respectively. Besides, the Eff. % in the data set on Phytophthora infestans [3] turned out to be 92%. Moreover, the LogP in data set [2] is recorded as 3.46.
In the case of `C#CCCCOC(=O)Nc1nc(CON=C(c2ccccc2)c2nc(=O)on2C)cs1` [Example 29], the “% efficacy” value in the data set with Phytophthora infestans [1] worked out at 95%; in the data set with Puccinia recondita, 94%. The lipophilicity (LogP) in [2] amounted to 2.77.
Turning to `C#CCCCCOC(=O)Nc1nc(CON=C(c2ccccc2)c2nc(=O)on2C)cs1` [Example 30], the “% efficacy” value is 100% in the data set on Phytophthora infestans [1], 78% in the data set on Sphaerotheca fuliginea and 98% in the data set on Puccinia recondita. The Eff. % in the data set with Plasmopara viticola amounted to 90%. The compound further came in with a LogP in data set [2] of 3.02.
For the compound `CCC(C)SC(=O)Nc1nc(CON=C(c2ccccc2)c2nc(=O)on2C)cs1` (stereo not shown) [Example 31], the “% efficacy” value in the data set with Phytophthora infestans [1] worked out at 100%; in the data set on Botrytis cinerea, 82%. The compound also displayed a LogP in [2] of 3.46.
`COc1cccc(/C(=N/OCc2csc(NC(=O)OC3CCCCC3)n2)c2nc(=O)on2C)c1` [Example 33, Cyclohexyl {4-[({[(Z)-(3-methoxyphenyl)(2-methyl-5-oxo-2,5-dihydro-1,2,4-oxadiazol-3-yl)methylene]amino}oxy)methyl]-1,3-thiazol-2-yl}carbamate]: the “% efficacy” value in the data set on Phytophthora infestans [1] is reported as 88%. Besides, the chromatographic logP in data set [4] was 3.57.
Turning to `COc1cccc(/C(=N/OCc2csc(NC(=O)OC(C)(C)C)n2)c2nc(=O)on2C)c1` [Example 34], the “% efficacy” value in the data set on Phytophthora infestans [1] turned out to be 100%. This compound yielded an Eff. % in the data set on Plasmopara viticola of 95%. Besides, in data set [2], the LogP was 3.13.
`Cn1oc(=O)nc1/C(=N\OCc1csc(Br)n1)c1ccccc1` [Example 99, 3-[(Z)-{[(2-bromo-1,3-thiazol-4-yl)methoxy]imino}(phenyl)methyl]-2-methyl-1,2,4-oxadiazol-5(2H)-one]: the chromatographic logP in [4] came out at 2.68.
The same measure, in the same setting: next, `Cn1oc(=O)nc1/C(=N\OCc1csc(NC(=S)Cc2ccc(Cl)cc2)n1)c1ccccc1` [Example 100, 2-(4-chlorophenyl)-N-{4-[({[(Z)-(2-methyl-5-oxo-2,5-dihydro-1,2,4-oxadiazol-3-yl)(phenyl)methylene]amino}oxy)methyl]-1,3-thiazol-2-yl}ethanethioamide]: 4.04; `Cn1oc(=O)nc1/C(=N/OCc1csc(NC(=S)Cc2ccc(Cl)cc2)n1)c1ccccc1` [Example 101, 2-(4-chlorophenyl)-N-{4-[({[(E)-(2-methyl-5-oxo-2,5-dihydro-1,2,4-oxadiazol-3-yl)(phenyl)methylene]amino}oxy)methyl]-1,3-thiazol-2-yl}ethanethioamide]: 3.85; `CN(O)C(=N)/C(=N\OCc1csc(N)n1)c1ccccc1` [Example V-2, (2Z)-2-{[(2-amino-1,3-thiazol-4-yl)methoxy]imino}-N-hydroxy-N-methyl-2-phenylethanimidamide]: 0.47.
With `CN(O)C(=N)/C(=N\OCc1csc(Br)n1)c1ccccc1` [Example V-3, (2Z)-2-{[(2-bromo-1,3-thiazol-4-yl)methoxy]imino}-N-hydroxy-N-methyl-2-phenylethanimidamide], the chromatographic logP in [4] is 1.34.
Same read-out and setting: next, `[H]/N=C(/C(=N\OCc1csc(NC(=O)OCCc2ccccc2)n1)c1ccccc1)N(O)CC` [Example V-4, 2-phenylethyl (4-{[({(1Z,2Z)-2-[ethyl(hydroxy)amino]-2-imino-1-phenylethylidene}amino)oxy]methyl}-1,3-thiazol-2-yl)carbamate]: 2.07.
